Reference: ChEMBL document CHEMBL1201862, “PubChem BioAssay data set” (2004)
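Values below derive from 48-hour exposures of cells grown in 96-well plates, with endpoints linearly interpolated between the two concentrations bracketing the appropriate inhibition level. GI50 = concentration required for 50% inhibition of growth.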 Active and inactive are the calls of the source. Rule as the data show it: active = GI50 up to about 1.1 µM and inactive = higher.

Columns and labels:
Test in all cases: NCI tumour cell line growth inhibition, 48 h
786-0 = system: 786-0
A498 = system: A498
A549 = system: A549
ACHN = system: ACHN
BT-549 = system: BT-549
CAKI-1 = system: CAKI-1
CCRF-CEM = system: CCRF-CEM
COLO 205 = system: COLO 205
EKVX = system: EKVX
HCC 2998 = system: HCC 2998
HCT-116 = system: HCT-116
HCT-15 = system: HCT-15
HOP-62 = system: HOP-62
HOP-92 = system: HOP-92
HT-29 = system: HT-29
Hs-578T = system: Hs-578T
IGROV-1 = system: IGROV-1
K562 = system: K562
KM12 = system: KM12
M14 = system: M14
MCF7 = system: MCF7
MDA-MB-231 = system: MDA-MB-231
MDA-MB-435 = system: MDA-MB-435
MDA-N = system: MDA-N
MOLT-4 = system: MOLT-4
Malme-3M = system: Malme-3M
NCI-H226 = system: NCI-H226
NCI-H23 = system: NCI-H23
NCI-H460 = system: NCI-H460
NCI-H522 = system: NCI-H522
NCI/ADR-RES = system: NCI/ADR-RES
OVCAR-3 = system: OVCAR-3
OVCAR-4 = system: OVCAR-4
OVCAR-5 = system: OVCAR-5
OVCAR-8 = system: OVCAR-8
PC-3 = system: PC-3
RXF 393 = system: RXF 393
SF-268 = system: SF-268
SF-295 = system: SF-295
SF-539 = system: SF-539
SK-MEL-28 = system: SK-MEL-28
SK-MEL-5 = system: SK-MEL-5
SK-OV-3 = system: SK-OV-3
SN12C = system: SN12C
SNB-19 = system: SNB-19
SNB-75 = system: SNB-75
SR = system: SR
SW-620 = system: SW-620
T47D = system: T47D
TK-10 = system: TK-10
U-251 = system: U-251
UACC-257 = system: UACC-257
UACC-62 = system: UACC-62
UO-31 = system: UO-31
DU-145 = system: DU-145
HL-60 = system: HL-60
LOX IMVI = system: LOX IMVI
RPMI-8226 = system: RPMI-8226
SK-MEL-2 = system: SK-MEL-2

CC1(C)C(C#N)C1C1=C(N2CCOCC2)[C@]2(C)C(OC(=O)c3ccccc3)CC[C@@H]2C1 (some centres not stated) was tested, and the GI50 (786-0) was > 100 µM (inactive), the GI50 (A498) was > 100 µM (inactive) and the GI50 (A549) was > 100 µM (inactive). For the same compound, the GI50 (ACHN) was > 100 µM (inactive), the GI50 (BT-549) was 55.1 µM (inactive) and the GI50 (CAKI-1) was > 100 µM (inactive). For the same compound, the GI50 (CCRF-CEM) was 31 µM (inactive), the GI50 (COLO 205) was 95.3 µM (inactive) and the GI50 (EKVX) was > 100 µM (inactive). For the same compound, the GI50 (HCC 2998) was > 100 µM (inactive), the GI50 (HCT-116) was 33.7 µM (inactive) and the GI50 (HCT-15) was over 100 µM. For the same compound, the GI50 (HOP-62) was > 100 µM (inactive), the GI50 (HOP-92) was 61.2 µM (inactive) and the GI50 (HT-29) was 50.1 µM (inactive). The GI50 (Hs-578T) was > 100 µM (inactive), the GI50 (IGROV-1) was > 100 µM (inactive) and the GI50 (K562) was 38.5 µM (inactive). For the same compound, the GI50 (KM12) was > 100 µM (inactive), the GI50 (M14) was > 100 µM (inactive) and the GI50 (MCF7) was 72.6 µM (inactive). For the same compound, the GI50 (MDA-MB-231) was > 100 µM (inactive), the GI50 (MDA-MB-435) was > 100 µM (inactive) and the GI50 (MDA-N) was > 100 µM (inactive). For the same compound, the GI50 (MOLT-4) was 34.9 µM (inactive), the GI50 (Malme-3M) was > 100 µM (inactive) and the GI50 (NCI-H226) was > 100 µM (inactive). For the same compound, the GI50 (NCI-H23) was > 100 µM (inactive), the GI50 (NCI-H460) was > 100 µM (inactive) and the GI50 (NCI-H522) was > 100 µM (inactive). The GI50 (NCI/ADR-RES) was > 100 µM (inactive), the GI50 (OVCAR-3) was > 100 µM (inactive) and the GI50 (OVCAR-4) was > 100 µM (inactive). The GI50 (OVCAR-5) was > 100 µM (inactive), the GI50 (OVCAR-8) was > 100 µM (inactive) and the GI50 (PC-3) was > 100 µM (inactive). For the same compound, the GI50 (RXF 393) was 35.6 µM (inactive), the GI50 (SF-268) was > 100 µM (inactive) and the GI50 (SF-295) was > 100 µM (inactive). The GI50 (SF-539) was > 100 µM (inactive), the GI50 (SK-MEL-28) was > 100 µM (inactive) and the GI50 (SK-MEL-5) was 29.8 µM (inactive). For the same compound, the GI50 (SK-OV-3) was > 100 µM (inactive), the GI50 (SN12C) was > 100 µM (inactive) and the GI50 (SNB-19) was > 100 µM (inactive). The GI50 (SNB-75) was 20.5 µM (inactive), the GI50 (SR) was 61.5 µM (inactive) and the GI50 (SW-620) was > 100 µM (inactive). For the same compound, the GI50 (T47D) was 35.5 µM (inactive), the GI50 (TK-10) was > 100 µM (inactive) and the GI50 (U-251) was > 100 µM (inactive). The GI50 (UACC-257) was > 100 µM (inactive), the GI50 (UACC-62) was > 100 µM (inactive) and the GI50 (UO-31) was > 100 µM (inactive).

In the case of CNC(=S)NNc1ncnc2c1ncn2-c1ccc(C)cc1, the GI50 (786-0) is reported as > 100 µM (inactive), the GI50 (A498) is reported as > 100 µM (inactive) and the GI50 (A549) is reported as > 100 µM (inactive). The GI50 (BT-549) was > 100 µM (inactive), the GI50 (CAKI-1) was > 100 µM (inactive) and the GI50 (CCRF-CEM) was > 100 µM (inactive). The GI50 (COLO 205) was > 100 µM (inactive), the GI50 (DU-145) was > 100 µM (inactive) and the GI50 (EKVX) was > 100 µM (inactive). The GI50 (HCT-116) was > 100 µM (inactive), the GI50 (HCT-15) was over 100 µM and the GI50 (HL-60) was > 100 µM (inactive). The GI50 (HOP-62) was > 100 µM (inactive), the GI50 (HOP-92) was > 100 µM (inactive) and the GI50 (HT-29) was > 100 µM (inactive). For the same compound, the GI50 (Hs-578T) was > 100 µM (inactive), the GI50 (IGROV-1) was > 100 µM (inactive) and the GI50 (K562) was > 100 µM (inactive). For the same compound, the GI50 (KM12) was > 100 µM (inactive), the GI50 (LOX IMVI) was > 100 µM (inactive) and the GI50 (M14) was > 100 µM (inactive). For the same compound, the GI50 (MDA-MB-231) was 43.9 µM (inactive), the GI50 (MDA-MB-435) was > 100 µM (inactive) and the GI50 (MDA-N) was > 100 µM (inactive). The GI50 (MOLT-4) was > 100 µM (inactive), the GI50 (Malme-3M) was > 100 µM (inactive) and the GI50 (NCI-H226) was > 100 µM (inactive). For the same compound, the GI50 (NCI-H23) was > 100 µM (inactive), the GI50 (NCI-H460) was > 100 µM (inactive) and the GI50 (NCI-H522) was > 100 µM (inactive). The GI50 (NCI/ADR-RES) was > 100 µM (inactive), the GI50 (OVCAR-3) was > 100 µM (inactive) and the GI50 (OVCAR-4) was > 100 µM (inactive). For the same compound, the GI50 (OVCAR-5) was > 100 µM (inactive), the GI50 (OVCAR-8) was > 100 µM (inactive) and the GI50 (PC-3) was > 100 µM (inactive). For the same compound, the GI50 (RPMI-8226) was > 100 µM (inactive), the GI50 (RXF 393) was > 100 µM (inactive) and the GI50 (SF-268) was > 100 µM (inactive). For the same compound, the GI50 (SF-295) was > 100 µM (inactive), the GI50 (SF-539) was > 100 µM (inactive) and the GI50 (SK-MEL-28) was > 100 µM (inactive). The GI50 (SK-MEL-2) was > 100 µM (inactive), the GI50 (SK-MEL-5) was > 100 µM (inactive) and the GI50 (SK-OV-3) was > 100 µM (inactive). For the same compound, the GI50 (SN12C) was > 100 µM (inactive), the GI50 (SNB-19) was > 100 µM (inactive) and the GI50 (SR) was > 100 µM (inactive). The GI50 (SW-620) was > 100 µM (inactive), the GI50 (T47D) was > 100 µM (inactive) and the GI50 (TK-10) was > 100 µM (inactive). The GI50 (U-251) was > 100 µM (inactive), the GI50 (UACC-257) was > 100 µM (inactive) and the GI50 (UACC-62) was > 100 µM (inactive). For the same compound, the GI50 (UO-31) was > 100 µM (inactive).

For COC(=O)C1C(O)C(C)C(O)C(C)/C=C\C=C(C)C(=O)Nc2c(C)c(OC(C)=O)c3c(c2O)C(=O)C(C)=C2OCOC(=C23)C(C)=CC(C)(O)C(O)C(C)C1O (configuration not stated), the GI50 (786-0) was > 100 µM (inactive), the GI50 (A549) was > 100 µM (inactive) and the GI50 (ACHN) was > 100 µM (inactive). For the same compound, the GI50 (BT-549) was > 100 µM (inactive), the GI50 (COLO 205) was 20.4 µM (inactive) and the GI50 (DU-145) was > 100 µM (inactive). For the same compound, the GI50 (HCT-116) was 30.3 µM (inactive), the GI50 (HL-60) was 29.4 µM (inactive) and the GI50 (HOP-92) was 60.4 µM (inactive). For the same compound, the GI50 (HT-29) was 42.5 µM (inactive), the GI50 (Hs-578T) was > 100 µM (inactive) and the GI50 (IGROV-1) was 87.1 µM (inactive). The GI50 (M14) was 38.9 µM (inactive), the GI50 (MCF7) was 35.6 µM (inactive) and the GI50 (MDA-MB-231) was 24.9 µM (inactive). The GI50 (MDA-MB-435) was 68.4 µM (inactive), the GI50 (MDA-N) was 59.8 µM (inactive) and the GI50 (Malme-3M) was 36.5 µM (inactive). For the same compound, the GI50 (NCI-H226) was > 100 µM (inactive), the GI50 (OVCAR-3) was 24.3 µM (inactive) and the GI50 (OVCAR-8) was 34 µM (inactive). The GI50 (PC-3) was > 100 µM (inactive), the GI50 (SF-268) was 68.4 µM (inactive) and the GI50 (SF-539) was > 100 µM (inactive). For the same compound, the GI50 (SK-MEL-28) was 47 µM (inactive), the GI50 (SK-MEL-2) was 32.3 µM (inactive) and the GI50 (SK-MEL-5) was 41.2 µM (inactive). The GI50 (SR) was 96.4 µM (inactive), the GI50 (SW-620) was 35.5 µM (inactive) and the GI50 (T47D) was 52.2 µM (inactive). For the same compound, the GI50 (TK-10) was > 100 µM (inactive), the GI50 (UACC-257) was 23 µM (inactive) and the GI50 (UO-31) was 82.4 µM (inactive).
